ChEMBL document CHEMBL1201862, “PubChem BioAssay data set” (2004)
The source made the active and inactive calls.

Experiments:
[1] = target: T1, Alkaline phosphatase, tissue-nonspecific isozyme (Homo sapiens, UniProt P05186); assay: TNAP enzyme activators, dose response, selectivity assay for human IAP activator project, biochemical, TNAP isozyme, human IAP uHTS hits (AID 488886); format: functional;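 note: potency of compounds raising TNAP activity as a selectivity check on IAP activators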
T1 sequence (P05186 whole entry): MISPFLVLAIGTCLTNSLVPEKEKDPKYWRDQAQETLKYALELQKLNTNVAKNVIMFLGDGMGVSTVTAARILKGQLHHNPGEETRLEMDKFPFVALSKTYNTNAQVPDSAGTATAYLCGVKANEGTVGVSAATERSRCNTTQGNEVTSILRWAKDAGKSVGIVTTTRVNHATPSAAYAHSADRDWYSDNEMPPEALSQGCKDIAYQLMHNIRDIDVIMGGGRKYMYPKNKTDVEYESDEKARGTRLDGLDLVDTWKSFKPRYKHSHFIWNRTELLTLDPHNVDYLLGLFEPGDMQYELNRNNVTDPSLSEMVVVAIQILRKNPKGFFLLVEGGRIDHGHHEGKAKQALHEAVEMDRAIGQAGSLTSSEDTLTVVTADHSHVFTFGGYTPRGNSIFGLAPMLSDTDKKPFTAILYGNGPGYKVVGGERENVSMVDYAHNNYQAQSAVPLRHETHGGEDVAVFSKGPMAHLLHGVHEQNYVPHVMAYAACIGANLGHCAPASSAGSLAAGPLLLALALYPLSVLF

[2] = target: T2, Intestinal-type alkaline phosphatase (Mus musculus, UniProt P24822); assay: PubChem AID 488875; format: functional
[3] = target: T3, Intestinal-type alkaline phosphatase (Homo sapiens, UniProt P09923); assay: human intestinal alkaline phosphatase activators, dose response, biochemical, luminescence, uHTS hits (AID 463120); format: functional
[4] = target: T3, Intestinal-type alkaline phosphatase; assay: human IAP activators, dose response, biochemical, luminescent, uHTS hits, set 2 (AID 488817); format: functional;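 note: potency of activators that raise enzyme activity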
Genome polyprotein = Genome polyprotein (dengue virus type 2, UniProt P29990); assay: Dengue-2 NS5 methyltransferase inhibitors, primary screen, biochemical, confirmation dose response (AID 588689); format: functional
[5] = target: T4, Endoribonuclease toxin MazF (Escherichia coli K-12, UniProt P0AE70); assay: fluorescent RNA oligo signal without MazF, dose response, counter-screen for MazEF activator project, biochemical, fluorescence, single-stranded RNase substrate (AID 588502); format: functional
T4 sequence (P0AE70 whole entry): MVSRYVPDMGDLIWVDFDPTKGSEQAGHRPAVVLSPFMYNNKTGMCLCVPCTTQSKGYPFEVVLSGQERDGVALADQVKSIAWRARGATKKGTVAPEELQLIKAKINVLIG

ORF 73 = target: T5, ORF 73 (Human herpesvirus 8, UniProt O40947); assay: inhibitors of C-LANA binding to LBS DNA, dose response, biochemical, fluorescence polarization, cherry-picked samples (AID 504725); design: species or system Human gammaherpesvirus 8;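 note: fluorescence polarization of a labeled DNA duplex reporting LANA DNA binding; potency is for inhibitors that block LANA binding to the DNA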
T5 sequence (O40947 whole entry): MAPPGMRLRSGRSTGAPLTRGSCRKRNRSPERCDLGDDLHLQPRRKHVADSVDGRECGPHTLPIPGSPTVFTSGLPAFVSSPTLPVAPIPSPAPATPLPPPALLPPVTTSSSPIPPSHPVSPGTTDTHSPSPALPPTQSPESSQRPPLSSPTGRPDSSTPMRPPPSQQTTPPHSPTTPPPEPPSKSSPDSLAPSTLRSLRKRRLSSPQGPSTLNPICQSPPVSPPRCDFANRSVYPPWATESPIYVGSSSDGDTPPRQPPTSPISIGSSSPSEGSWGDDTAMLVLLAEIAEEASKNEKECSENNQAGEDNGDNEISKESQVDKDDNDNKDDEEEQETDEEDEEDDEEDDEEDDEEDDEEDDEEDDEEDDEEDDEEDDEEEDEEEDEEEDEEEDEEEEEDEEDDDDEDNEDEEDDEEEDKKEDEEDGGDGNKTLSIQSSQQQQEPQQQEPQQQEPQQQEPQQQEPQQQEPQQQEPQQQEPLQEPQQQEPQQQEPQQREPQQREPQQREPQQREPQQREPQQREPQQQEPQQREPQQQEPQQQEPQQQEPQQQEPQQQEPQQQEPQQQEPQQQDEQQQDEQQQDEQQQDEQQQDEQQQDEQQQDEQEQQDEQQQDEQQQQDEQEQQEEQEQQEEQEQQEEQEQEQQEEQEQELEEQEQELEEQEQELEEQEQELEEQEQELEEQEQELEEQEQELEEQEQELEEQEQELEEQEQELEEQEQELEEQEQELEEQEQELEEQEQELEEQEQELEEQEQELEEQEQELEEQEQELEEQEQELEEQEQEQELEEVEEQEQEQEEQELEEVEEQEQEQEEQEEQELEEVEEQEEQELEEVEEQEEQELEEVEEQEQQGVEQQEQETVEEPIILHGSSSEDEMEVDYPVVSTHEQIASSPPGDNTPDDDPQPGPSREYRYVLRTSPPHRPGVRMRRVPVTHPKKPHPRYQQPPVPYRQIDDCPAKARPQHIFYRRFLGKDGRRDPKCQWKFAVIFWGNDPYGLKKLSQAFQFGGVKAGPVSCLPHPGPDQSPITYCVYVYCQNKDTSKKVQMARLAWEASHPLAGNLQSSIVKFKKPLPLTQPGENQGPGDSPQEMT

[6] = target: T4, Endoribonuclease toxin MazF; assay: MazF toxin RNase activators, dose response, biochemical, fluorescence, single-stranded RNA substrate, uHTS hits (AID 588481); format: functional
Caspase-7 = Caspase-7 (Homo sapiens, UniProt P55210); assay: human caspase-7 inhibitors, dose response, selectivity assay for caspase-6 inhibitor project, biochemical, DEVD-R110 fluorescence, cherry-pick (AID 743295)
Troponin, cardiac muscle = Troponin, cardiac muscle (Homo sapiens, UniProt P19429+P45379+P63316); assay: inhibitors of cardiac thin filament calcium sensitivity, dose response, biochemical, fluorescence, cardiac regulated thin filaments, triplicate IC50 (AID 504742); format: protein-complex assay
[7] = target: 1-phosphatidylinositol 4,5-bisphosphate phosphodiesterase gamma-1 (Homo sapiens, UniProt P19174); assay: Counterscreen for inhibitors of phospholipase C isozymes (PLC-B3): Fluorescence-based biochemical high throughput dose response assay to identify inhibitors of phospholipase C isozymes (PLC-gamma1).
[8] = target: T6, Long-chain-fatty-acid--AMP ligase FadD28 (Mycobacterium tuberculosis, UniProt P9WQ59); assay: Fluorescence polarization aasay to screen for inhibitors that compete for the binding of FadD28 to a bisubstrate Measured in Biochemical System Using Plate Reader - 2147-01_Inhibitor_Dose_CherryPick_Activity.; format: functional, Mycobacterium tuberculosis H37Rv
T6 sequence (P9WQ59 whole entry): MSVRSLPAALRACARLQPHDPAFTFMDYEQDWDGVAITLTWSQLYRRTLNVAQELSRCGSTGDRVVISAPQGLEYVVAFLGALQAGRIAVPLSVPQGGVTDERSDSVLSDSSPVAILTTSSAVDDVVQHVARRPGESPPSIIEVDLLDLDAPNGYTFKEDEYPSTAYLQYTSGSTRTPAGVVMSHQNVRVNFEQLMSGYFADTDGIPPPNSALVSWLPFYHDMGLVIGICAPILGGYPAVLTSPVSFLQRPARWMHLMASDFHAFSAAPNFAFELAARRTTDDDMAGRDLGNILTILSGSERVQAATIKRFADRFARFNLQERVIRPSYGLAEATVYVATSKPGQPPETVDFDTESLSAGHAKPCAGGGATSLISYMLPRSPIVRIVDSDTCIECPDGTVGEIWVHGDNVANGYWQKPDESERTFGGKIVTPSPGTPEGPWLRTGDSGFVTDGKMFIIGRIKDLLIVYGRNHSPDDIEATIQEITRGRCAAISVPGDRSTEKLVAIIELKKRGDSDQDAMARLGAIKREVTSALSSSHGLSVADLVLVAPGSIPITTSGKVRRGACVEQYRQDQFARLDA

[9] = target: Induced myeloid leukemia cell differentiation protein Mcl-1 (Homo sapiens, UniProt Q07820); format: functional
Caspase-6 = target: T7, Caspase-6 (Homo sapiens, UniProt P55212); assay: human caspase-6 inhibitors, dose response, biochemical, VEID-R110 fluorescence, cherry-pick (AID 720632)
T7 sequence (P55212 whole entry): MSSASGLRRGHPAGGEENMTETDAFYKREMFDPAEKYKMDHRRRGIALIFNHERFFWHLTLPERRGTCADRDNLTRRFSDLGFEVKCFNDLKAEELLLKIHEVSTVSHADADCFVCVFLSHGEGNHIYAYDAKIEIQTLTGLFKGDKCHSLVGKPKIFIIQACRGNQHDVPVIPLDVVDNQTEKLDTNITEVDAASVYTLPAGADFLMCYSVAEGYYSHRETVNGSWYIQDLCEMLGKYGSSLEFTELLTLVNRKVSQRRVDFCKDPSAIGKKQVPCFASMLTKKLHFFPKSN

[10] = target: 1-phosphatidylinositol 4,5-bisphosphate phosphodiesterase beta-3 (Homo sapiens, UniProt Q01970); assay: Fluorescence-based biochemical high throughput dose response assay to identify inhibitors of phospholipase C isozymes (PLC-B3).
[11] = target: T3, Intestinal-type alkaline phosphatase; assay: activation of human intestinal alkaline phosphatase – biochemical, dose response (AID 488873); format: functional
[12] = target: T8, Rac GTPase-activating protein 1 (Homo sapiens, UniProt Q9H0H5); assay: MgcRacGAP GTPase-activating activity inhibitors, confirmation, biochemical, ADP Hunter fluorescence, primary and confirmatory (AID 624330); format: functional
T8 sequence (Q9H0H5 whole entry): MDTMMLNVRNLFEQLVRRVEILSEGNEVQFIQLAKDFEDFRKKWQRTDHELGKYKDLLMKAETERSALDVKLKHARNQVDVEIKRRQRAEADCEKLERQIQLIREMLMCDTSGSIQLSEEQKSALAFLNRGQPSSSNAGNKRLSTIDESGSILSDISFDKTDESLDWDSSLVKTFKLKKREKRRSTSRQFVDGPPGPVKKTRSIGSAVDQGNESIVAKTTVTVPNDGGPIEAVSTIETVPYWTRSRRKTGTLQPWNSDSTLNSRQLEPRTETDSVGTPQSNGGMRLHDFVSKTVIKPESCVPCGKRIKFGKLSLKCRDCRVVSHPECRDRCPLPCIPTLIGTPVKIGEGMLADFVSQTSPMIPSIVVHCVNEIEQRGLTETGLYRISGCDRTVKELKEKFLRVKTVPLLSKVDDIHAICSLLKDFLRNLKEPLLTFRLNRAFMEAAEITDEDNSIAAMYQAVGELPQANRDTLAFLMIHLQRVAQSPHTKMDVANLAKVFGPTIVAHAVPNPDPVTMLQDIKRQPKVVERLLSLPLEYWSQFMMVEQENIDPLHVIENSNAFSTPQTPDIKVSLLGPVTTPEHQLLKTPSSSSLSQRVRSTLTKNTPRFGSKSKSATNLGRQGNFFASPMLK

[13] = target: T1, Alkaline phosphatase, tissue-nonspecific isozyme; assay: TNAP enzyme activators, dose response, selectivity assay for mouse IAP activator project, biochemical, TNAP isozyme, mouse IAP uHTS hits (AID 488880); format: functional
[14] = target: T1, Alkaline phosphatase, tissue-nonspecific isozyme; assay: human TNAP enzyme inhibitors, SAR follow-up, biochemical, luminescent, dose response (AID 1056)
[15] = target: T2, Intestinal-type alkaline phosphatase; assay: mouse intestinal alkaline phosphatase activators, dose response, biochemical, luminescence, uHTS hits (AID 488783); format: functional
[16] = target: Alkaline phosphatase, placental type (Homo sapiens, UniProt P05187); assay: PLAP enzyme inhibitors, confirmation, biochemical, luminescence (AID 1512); format: functional
Sequence of Alkaline phosphatase, placental type (P05187 whole entry): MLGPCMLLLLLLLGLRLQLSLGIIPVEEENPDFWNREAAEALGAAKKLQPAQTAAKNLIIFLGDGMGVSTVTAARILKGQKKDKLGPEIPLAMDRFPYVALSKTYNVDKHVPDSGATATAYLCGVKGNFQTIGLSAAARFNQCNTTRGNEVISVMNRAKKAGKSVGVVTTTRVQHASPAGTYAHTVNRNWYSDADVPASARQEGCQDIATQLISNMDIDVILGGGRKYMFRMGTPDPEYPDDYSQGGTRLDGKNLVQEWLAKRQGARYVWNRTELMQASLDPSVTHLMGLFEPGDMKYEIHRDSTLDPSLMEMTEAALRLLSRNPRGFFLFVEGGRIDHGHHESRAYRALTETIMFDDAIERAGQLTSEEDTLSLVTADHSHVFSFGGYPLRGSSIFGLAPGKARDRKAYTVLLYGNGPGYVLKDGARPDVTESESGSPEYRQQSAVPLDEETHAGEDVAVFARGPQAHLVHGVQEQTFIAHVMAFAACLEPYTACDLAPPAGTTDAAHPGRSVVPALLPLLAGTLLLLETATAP

T3 sequence (P09923 whole entry): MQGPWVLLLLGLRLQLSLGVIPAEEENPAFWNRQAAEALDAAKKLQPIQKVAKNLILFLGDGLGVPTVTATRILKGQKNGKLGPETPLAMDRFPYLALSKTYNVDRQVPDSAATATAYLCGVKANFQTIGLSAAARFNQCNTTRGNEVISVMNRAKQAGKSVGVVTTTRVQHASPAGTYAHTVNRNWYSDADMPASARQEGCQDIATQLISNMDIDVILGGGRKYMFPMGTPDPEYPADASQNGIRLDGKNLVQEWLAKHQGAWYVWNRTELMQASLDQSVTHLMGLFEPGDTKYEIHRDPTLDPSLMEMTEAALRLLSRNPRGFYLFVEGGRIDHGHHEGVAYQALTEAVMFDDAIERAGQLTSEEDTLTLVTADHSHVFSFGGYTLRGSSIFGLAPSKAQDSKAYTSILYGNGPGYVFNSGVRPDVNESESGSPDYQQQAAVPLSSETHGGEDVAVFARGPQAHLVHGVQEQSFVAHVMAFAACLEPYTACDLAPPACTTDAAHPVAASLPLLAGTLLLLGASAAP
T2 sequence (P24822 whole entry): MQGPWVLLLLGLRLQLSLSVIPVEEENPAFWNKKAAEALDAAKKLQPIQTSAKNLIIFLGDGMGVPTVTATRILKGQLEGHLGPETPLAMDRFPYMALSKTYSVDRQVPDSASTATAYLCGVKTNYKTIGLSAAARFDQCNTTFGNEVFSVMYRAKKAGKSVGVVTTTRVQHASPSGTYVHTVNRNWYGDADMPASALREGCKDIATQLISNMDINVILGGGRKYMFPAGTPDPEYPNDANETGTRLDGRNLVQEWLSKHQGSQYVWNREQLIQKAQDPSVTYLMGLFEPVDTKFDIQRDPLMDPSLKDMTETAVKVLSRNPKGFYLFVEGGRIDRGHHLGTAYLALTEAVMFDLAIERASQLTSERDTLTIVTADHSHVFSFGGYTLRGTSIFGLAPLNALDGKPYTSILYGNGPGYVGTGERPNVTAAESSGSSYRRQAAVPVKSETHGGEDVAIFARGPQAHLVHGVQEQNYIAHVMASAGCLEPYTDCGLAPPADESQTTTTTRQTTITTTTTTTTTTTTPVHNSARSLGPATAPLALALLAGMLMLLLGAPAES
Sequence of 1-phosphatidylinositol 4,5-bisphosphate phosphodiesterase beta-3 (Q01970 whole entry): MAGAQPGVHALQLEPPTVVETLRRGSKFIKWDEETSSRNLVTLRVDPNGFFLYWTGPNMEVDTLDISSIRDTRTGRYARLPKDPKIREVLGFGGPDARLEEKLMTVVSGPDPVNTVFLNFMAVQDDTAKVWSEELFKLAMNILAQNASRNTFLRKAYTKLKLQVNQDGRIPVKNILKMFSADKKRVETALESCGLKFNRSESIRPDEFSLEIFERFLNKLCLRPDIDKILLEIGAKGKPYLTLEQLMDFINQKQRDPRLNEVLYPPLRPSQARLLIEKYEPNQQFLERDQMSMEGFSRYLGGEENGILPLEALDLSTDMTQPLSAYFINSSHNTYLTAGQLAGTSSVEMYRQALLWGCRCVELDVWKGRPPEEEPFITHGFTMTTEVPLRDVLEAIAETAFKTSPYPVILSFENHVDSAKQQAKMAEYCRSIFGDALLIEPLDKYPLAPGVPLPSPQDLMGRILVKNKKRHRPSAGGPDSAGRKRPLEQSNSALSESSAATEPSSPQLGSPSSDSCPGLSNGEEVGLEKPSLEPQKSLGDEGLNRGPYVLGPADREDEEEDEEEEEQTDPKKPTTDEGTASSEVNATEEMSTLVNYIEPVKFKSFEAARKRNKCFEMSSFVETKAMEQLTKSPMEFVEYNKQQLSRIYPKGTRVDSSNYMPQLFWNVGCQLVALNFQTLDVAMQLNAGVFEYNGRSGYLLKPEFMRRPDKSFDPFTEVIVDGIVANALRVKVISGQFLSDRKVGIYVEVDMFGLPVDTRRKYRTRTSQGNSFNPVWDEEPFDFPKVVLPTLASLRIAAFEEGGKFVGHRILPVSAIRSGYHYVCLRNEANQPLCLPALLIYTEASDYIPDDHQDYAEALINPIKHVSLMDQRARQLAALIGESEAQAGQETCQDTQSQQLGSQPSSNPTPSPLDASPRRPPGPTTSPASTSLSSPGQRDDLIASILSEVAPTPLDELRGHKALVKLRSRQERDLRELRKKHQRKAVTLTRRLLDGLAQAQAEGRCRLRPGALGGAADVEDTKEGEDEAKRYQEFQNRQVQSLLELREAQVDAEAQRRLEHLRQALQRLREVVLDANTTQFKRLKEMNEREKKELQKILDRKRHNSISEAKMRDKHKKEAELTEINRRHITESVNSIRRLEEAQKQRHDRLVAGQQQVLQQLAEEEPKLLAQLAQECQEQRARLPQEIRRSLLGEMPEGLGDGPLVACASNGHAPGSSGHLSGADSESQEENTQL
Sequence of Caspase-7 (P55210 24-198 limits assumed): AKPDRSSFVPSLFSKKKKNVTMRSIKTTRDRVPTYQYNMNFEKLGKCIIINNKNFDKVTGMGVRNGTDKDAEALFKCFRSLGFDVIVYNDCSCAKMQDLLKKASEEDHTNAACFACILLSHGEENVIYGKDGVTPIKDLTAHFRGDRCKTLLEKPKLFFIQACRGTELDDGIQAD
Sequence of Caspase-7 (P55210 207-303 limits assumed): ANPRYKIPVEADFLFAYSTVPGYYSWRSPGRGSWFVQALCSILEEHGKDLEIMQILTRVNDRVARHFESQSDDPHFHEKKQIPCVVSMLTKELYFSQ
Sequence of Induced myeloid leukemia cell differentiation protein Mcl-1 (Q07820 whole entry): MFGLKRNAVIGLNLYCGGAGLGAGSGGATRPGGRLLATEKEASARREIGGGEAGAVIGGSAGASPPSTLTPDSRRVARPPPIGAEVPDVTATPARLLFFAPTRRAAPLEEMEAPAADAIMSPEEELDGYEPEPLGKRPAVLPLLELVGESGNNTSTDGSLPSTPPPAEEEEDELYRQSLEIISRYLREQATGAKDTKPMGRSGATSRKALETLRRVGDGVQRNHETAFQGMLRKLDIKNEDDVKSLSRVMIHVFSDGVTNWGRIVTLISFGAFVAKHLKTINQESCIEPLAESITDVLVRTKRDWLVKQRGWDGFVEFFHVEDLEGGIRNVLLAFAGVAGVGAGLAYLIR
Sequence of Genome polyprotein (P29990 2492-3391 limits assumed): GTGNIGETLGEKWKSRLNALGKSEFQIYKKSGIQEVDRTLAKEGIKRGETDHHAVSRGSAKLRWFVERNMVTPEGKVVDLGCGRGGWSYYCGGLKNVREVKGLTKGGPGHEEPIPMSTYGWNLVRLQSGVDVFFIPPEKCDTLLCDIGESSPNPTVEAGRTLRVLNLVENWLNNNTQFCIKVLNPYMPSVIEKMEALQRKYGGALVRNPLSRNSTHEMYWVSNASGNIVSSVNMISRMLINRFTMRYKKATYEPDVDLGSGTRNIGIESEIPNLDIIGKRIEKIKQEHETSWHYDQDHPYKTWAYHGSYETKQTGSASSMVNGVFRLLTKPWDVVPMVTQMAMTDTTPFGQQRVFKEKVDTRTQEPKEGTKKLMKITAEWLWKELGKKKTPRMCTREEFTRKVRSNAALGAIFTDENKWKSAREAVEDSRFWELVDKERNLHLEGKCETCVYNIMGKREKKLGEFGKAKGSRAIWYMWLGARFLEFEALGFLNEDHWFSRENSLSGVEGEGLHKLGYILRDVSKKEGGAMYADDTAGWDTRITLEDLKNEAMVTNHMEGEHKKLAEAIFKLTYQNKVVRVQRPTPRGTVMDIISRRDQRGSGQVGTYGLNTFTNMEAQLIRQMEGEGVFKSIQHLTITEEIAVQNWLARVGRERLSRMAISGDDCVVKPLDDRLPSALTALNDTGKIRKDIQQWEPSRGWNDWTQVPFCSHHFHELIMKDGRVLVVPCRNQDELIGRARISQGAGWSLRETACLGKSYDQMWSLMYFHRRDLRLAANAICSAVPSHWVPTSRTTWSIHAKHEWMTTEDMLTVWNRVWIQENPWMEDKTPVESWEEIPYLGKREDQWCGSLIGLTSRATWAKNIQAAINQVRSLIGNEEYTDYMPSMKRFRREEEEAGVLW

## COc1ccc(OC)c(NC(=O)c2cc(-c3cc(C)ccc3O)n[nH]2)c1
[1]
  EC50: 18.5 µM (active)
[2]
  EC50: > 100 µM (inactive)
[3]
  EC50: 15.1 µM (active)
[4]
  EC50: 20.8 µM (active)

## O=c1oc2c(cc1O)oc(=O)c1cc(O)c(O)c(O)c12
Genome polyprotein
  IC50: > 100 µM (active)
[5]
  EC50: > 99 µM (inactive)
ORF 73
  AC50: 18.9 µM (active)
[6]
  EC50: 80.5 µM (inactive)
Caspase-7
  AC50: 2.35 µM (active)
Troponin, cardiac muscle
  IC50: 3.19 µM (active)
[7]
  IC50: > 123 µM (inactive)
[8]
  AC50: 98.7 µM (active)
[9]
  IC50: > 54 µM (active)
Caspase-6
  AC50: 0.484 µM (active)
[10]
  IC50: > 123 µM (inactive)

## C=CCn1c(SCC(=O)c2ccc(O)c(O)c2)nnc1-c1cccc(OC)c1
[11]
  EC50: > 100 µM (inactive)
[12]
  IC50: 77.7 µM (active)
[13]
  EC50: 68 µM (active)
[14]
  IC50: 17.4 µM (active)
[15]
  EC50: 100 µM (inactive)
[16]
  IC50: 5.55 µM (active)
